Laboratory results: patent publication US8367873B2, “Phenyl-substituted bicyclooctane-1,3-dione derivatives” (Bayer Cropscience AG, priority 2008, dated 2013)

How the values were obtained:
Assay type in all cases: in vivo
[1] = test system: Setaria viridis; test: Herbicidal pre-emergence action; details: pre-emergence method, 80 g/ha, greenhouse, visual assessment vs untreated controls
How it was run: (§1)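 Visual percent effect relative to untreated controls (0% = like control, 100% = dead) assessed three weeks after treatment in the greenhouse. Compounds, as wettable powders in water (600 l/ha, 0.2% wetting agent), were sprayed at different amounts onto covering soil over seeds sown in sandy loam.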

[2] = test system: Echinocloa crus-galli; test: Herbicidal pre-emergence action; details: pre-emergence method, 80 g/ha, greenhouse, visual assessment vs untreated controls
How it was run: as §1

[3] = test system: Lolium multiflorum; test: Herbicidal pre-emergence action; details: pre-emergence method, 80 g/ha, greenhouse, visual assessment vs untreated controls
How it was run: as §1

[4] = test system: Alopecurus myosuroides; test: Herbicidal pre-emergence action; details: pre-emergence method, 80 g/ha, greenhouse, visual assessment vs untreated controls
How it was run: as §1

[5] = test system: Setaria viridis; test: Herbicidal post-emergence action; details: post-emergence method, 80 g/ha
How it was run: (§2)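 Visual % herbicidal effect vs untreated controls (100% = plants dead, 0% = as control), ~3 wk after spraying. Plants sown in sandy loam, greenhouse-grown, treated at one-leaf stage (2–3 wk post-sowing). WP formulations, 600 l/ha water + 0.2% wetting agent, various doses.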

[6] = test system: Echinocloa crus-galli; test: Herbicidal post-emergence action; details: post-emergence method, 80 g/ha
How it was run: as §2

[7] = test system: Lolium multiflorum; test: Herbicidal post-emergence action; details: post-emergence method, 80 g/ha
How it was run: as §2

[8] = test system: Alopecurus myosuroides; test: Herbicidal post-emergence action; details: post-emergence method, 80 g/ha
How it was run: as §2

[9] = test system: monocotylidonous and dicotylidonous weed and crop plants; test: Herbicidal post-emergence action (other test plants); details: post-emergence method, 80 g/ha
How it was run: as §2

[10] = test system: monocotylidonous and dicotylidonous weed and crop plants; test: Herbicidal pre-emergence action (other test plants); details: pre-emergence method, 80 g/ha, greenhouse, visual assessment vs untreated controls
How it was run: as §1

Structure (SMILES)	herbicidal effect SETVI [1]	herbicidal effect ECHCG [2]	herbicidal effect LOLMU [3]	herbicidal effect ALOMY [4]	herbicidal effect against SETVI (Setaria viridis) [5]	herbicidal effect against ECHCG (Echinochloa crus-galli) [6]	herbicidal effect against LOLMU (Lolium multiflorum) [7]	herbicidal effect against ALOMY (Alopecurus myosuroides) [8]	herbicidal effect against AVEFA (Avena fatua) [9]	herbicidal effect AVEFA [10]
Cc1cc(C)c(C2=C(OC(=O)C(C)(C)C)C3CC4(COC(C)(C)O4)CC3C2=O)c(C)c1 (mixture of isomers) [I-b-48]	0%	0%	70%	80%	80%	90%	90%	90%	40%	20%
CCOC(=O)OC1=C(c2c(CC)cc(C)cc2CC)C(=O)C2CC3(CC12)OCC(C)(C)CO3 (centres unmarked) [I-c-22]	100%	100%	100%	100%	100%	100%	100%	100%	100%	70%
C#CC(C)ON=C1C[C@@H]2C(O)=C(c3c(CC)cc(C)cc3CC)C(=O)[C@@H]2C1 (relative stereo) [I-a-32]	20%	40%	100%	90%	20%	100%	100%	80%	0%	60%
C=C1CC2C(=O)C(c3c(C)cc(C)cc3CC)=C(OC(=O)OC)C2C1 (racemic) [I-c-77]	100%	80%	90%	80%	90%	100%	90%	0%	0%	80%
CCc1cc(C)cc(CC)c1C1=C([O-])C2CC3(CC2C1=O)OCC(OCc1ccccc1)CO3.[Na+] (centres unmarked) [I-f-16]	90%	60%	90%	80%	100%	100%	100%	100%	100%	80%
Cc1cc(C)c(C2=C([O-])C3CC4(CC3C2=O)OCC(C)CO4)c(C)c1.[Na+] (centres unmarked) [I-f-9]	50%	60%	100%	30%	100%	80%	100%	80%	90%	50%
C=C1COC2(CC3C(=O)C(c4c(CC)cc(C)cc4CC)=C([O-])C3C2)OC1.[Na+] (centres unmarked) [I-f-20]	100%	100%	100%	100%	100%	100%	100%	100%	100%	70%
COc1cc(C)cc(C)c1C1=C(O)C2CC3(CC2C1=O)OCCO3 (centres unmarked) [I-a-48]	70%	40%	80%	80%	100%	100%	100%	80%	90%	60%
CCc1cc(C)cc(CC)c1C1=C(O)C2CC(=NOCC(C)C)CC2C1=O (centres unmarked) [I-a-69]	80%	20%	70%	50%	80%	100%	100%	90%	30%	70%
CCc1cc(C)cc(C)c1C1=C(OC(=O)C(C)C)C2CC3(COC(C)(C)O3)CC2C1=O (centres unmarked) [I-b-69]	80%	100%	100%	100%	60%	100%	100%	90%	10%	80%
CCc1cc(C)cc(CC)c1C1=C([O-])C2CC3(CC2C1=O)OCC=CCO3.[Na+] (centres unmarked) [I-f-12]	90%	100%	70%	100%	100%	100%	100%	100%	100%	70%
CCc1cc(C)cc(CC)c1C1=C(O)C2CC3(CC2C1=O)OCCS3 (mixture of isomers) [I-a-35]	70%	70%	100%	80%	90%	100%	100%	100%	80%	80%
CCc1cc(C)cc(CC)c1C1=C(OC(=O)C(C)(C)C)C2CC3(COC(C)(C)O3)CC2C1=O (centres unmarked) [I-b-8]	90%	90%	100%	100%	60%	80%	100%	90%	70%	80%
CCc1cc(C)cc(CC)c1C1=C(OC(=O)OC(C)C)C2CC3(CC2C1=O)OCCS3 (mixture of isomers) [I-c-33]	60%	90%	100%	90%	80%	100%	90%	80%	90%	90%
